“Also recorded” adds a separate entry of the source.
Assays:
[1] = test system: soleus, EDL and diaphragm muscles from EAMG rats; test: Force measurement in isolated intact nerve-muscle preparations; parameters: species or system rat; conditions: for Relative force area after addition of NMD670 (Initial area = 100): NMD670 between 20 and 40 μM
Description: To allow for measurements of electrophysiological properties at the cellular level and for measurements of force, it was necessary to isolate nerve-muscle preparations from the rats. To this end, animals were sacrificed, and muscles were dissected out with 1 to 3 cm of intact nerve. The nerve-muscle preparations were then transferred to the organ baths used for the particular experiments (see below) and perfused with Normal Krebs-Ringer (NKR) solution, consisting of (in mM); 122 NaCl, 25 NaHCO3, 2.8 KCl, 1.2 KH2PO4, 1.2 MgSO4 1.27 CaCl2 and 5 D-glucose. This NKR solution was continuously gassed with a mixture of 95% oxygen and 5% CO2, to maintain a pH of approx. 7.4. In some experiments methyl-sulphate was used to replace Cl^− in the solution. All chemicals used were of analytical grade.
To determine whether enhanced neuromuscular transmission with CIC-1 inhibition could restore force in whole muscles from EAMG animals, experiments were conducted with soleus, extensor digitorum longus, and diaphragm muscles from EAMG rats. All muscles were mounted on force transducers (FORT 250, WPI instruments DE) in pre-warmed chambers (30° C.) containing 20 mL NKR each. The acquisition program Signal (version 6.4, Cambridge Electronics Design Ltd, Cambridge, UK) was used to control stimulation, delivered by an isolated stimulator (isostim 01D NPI electronics, DE) and for recording data via an analogue-digital converter (Micro 1401 Cambridge Electronics Design Ltd, Cambridge, UK). After equilibration in chambers, muscles were stretched to their optimal length and stimulated at a range of frequencies. For the duration of the experiment muscles were stimulated both directly and via the nerve at 12 V. This was accomplished by changing the stimulation pulse duration between 0.02 ms for nerve stimulation and 0.2 ms for direct stimulation of the muscle fibres. Muscles were stimulated every 10 min at 60 Hz for 1 second, either directly or via the nerve. To test for effect of NMD670 on force generation, different concentrations of NMD670 were added directly to the experimental chamber of the individual muscles.

[2] = Tablet dissolution; format: physicochemical; conditions: after a maximum of 60 minutes; USP2 paddles 75 RPM, 900 ml dissolution media pH 6.8, 37° C.
Experimental: Tablet dissolution was determined as follows.
Dissolution Media pH 6.8 was prepared by dissolving 27.3 g Na2HPO4·2H2O and 4.9 g Citric Acid in 1 L Milli-Q water. The pH was measured and adjusted if necessary to pH 6.8.
900 mL of dissolution media pH 6.8 was accurately transferred into each dissolution vessel. The apparatus was assembled, and the dissolution media was heated to 37° C.±0.5° C. The T=0 point was extracted from each vessel prior to dropping the tablets into the dissolution vessels. One tablet was gently dropped into each dissolution vessel, and rotation of the paddle was immediately started. Samples were taken that the sample extraction timepoints and analysed using the HPLC method.

[3] = test system: EAMG rats; test: 14-day dosing in EAMG animals: bodyweight and study completion; format: in vivo, rat
Experimental: To induce EAMG, 250 μL of emulsion of Complete Freund's Adjuvant, consisting of heat-inactivated Mycobacterium tuberculosis H37Ra in non-metabolizable oils, together with Phosphate-Buffered Saline (PBS) and 80 μg of the extracellular α-domain peptide fragment of the human nicotinic acetylcholine receptor (antigen) was injected subcutaneously in seven-week-old, anaesthetized Lewis rats. The disease-inducing antigen was supplied by the Hellenic Pasteur institute3. The emulsion was deposited at the tail base, left hindleg, and right foreleg. After injection, animals were allowed to recover and returned to their home cage maintained in ventilated racks under controlled temperature (20 to 22° C.) and humidity (˜55%) control, under a 12-h light/12-h dark cycle with food and water provided ad libitum. The animals had pathogen free status and the housing and changing system was designed to assure that the pathogen free status was preserved during the study. The EAMG rats were observed, weighed, and scored for MG symptoms weekly until symptoms of MG developed, whereafter animals were observed daily.
Sixteen (16) rats with an EAMG clinical score of 2 were allocated to the study and stratified to one of the two treatment groups (vehicle vs NMD670, 8 rats per group). […] Grip strength and Rotarod performance were measured prior to treatment (day 0) and on days 1, 4, 7, 9, 11 and 14 during treatment. […]

[4] = test system: healthy subjects; test: Phase I clinical trial Part A: tolerability/safety of single doses
Description: Part A1 tested single doses of NMD670 in a double-blind, randomised, placebo-controlled, partial crossover and dose-escalating design in healthy male subjects (see the WHO International Clinicals Trials Registry Platform study reference NL8692). A total of nine dose levels were investigated in three cohorts of subjects. Each cohort consisted of nine subjects, each subject had three study sessions. Each subject received escalating doses of NMD670 on two occasions and placebo on one occasion, the order will be randomized in a cross-over fashion. Each dose level was randomized in a 6:3 ratio (active vs. placebo).
Therefore, for the remaining 2 doses, a full cross-over design investigating one previously tested dose level was used. […] To determine the effect of food on the exposure of single oral doses of NMD670, dose level 5 was administered in both the fasted and fed condition. Subjects who received dose level 5 returned for a fourth visit in which they received dose level 5 (or matching placebo) in the fed condition, in the same randomization as the chosen dose level in the fasted condition.
Part A2 of the study investigated the safety, tolerability and pharmacokinetics of NMD670 in 8 healthy female subjects of non-childbearing potential, in a randomized, double-blind, placebo-controlled single dose administration of NMD670. Subjects received 800 mg NMD670. Subjects were randomized in a 6:2 ratio (active vs. placebo).
The following endpoints were determined at time points indicated in the Schedule of Assessments. • Serious adverse events (SAEs) and adverse events (AEs) were collected throughout the study at every study visit. • Concomitant medication • Clinical laboratory tests • Haematology • Chemistry • Urinalysis • Coagulation • Vital signs • Pulse Rate (bpm) • Systolic blood pressure (mmHg) • Diastolic blood pressure (mmHg) • Respiratory rate • ECG • Heart Rate (HR) (bpm), PR, QRS, QT, QTcF • 24-hour Holter recording • Hand grip dynamometry • Grip release profile; time profile from 100% maximum voluntary contraction (MVC) to 5% of the 100% MVC

[5] = of a total of 70 AEs, Part A healthy subjects

Question: With C[C@H](Oc1ccc(Br)cc1-c1ccon1)C(=O)O [NMD670, (2S)-2-[4-bromo-2-(1,2-oxazol-3-yl)phenoxy]propanoic acid] as the molecule, how does the “Force from isolated soleus muscle” value ([1]; 20 μM NMD670, nerve-stimulated at 60 Hz, EAMG rats) read?
Answer: could be restored

Question: What about the “Relative force area after addition of NMD670 (Initial area = 100)” value (shortened to “Relative force area after addition”) ([1]; Diaphragm (12) from EAMG rats) of the same molecule?
Answer: 120.2 ± 5.04

Question: And the “Relative force area after addition” value ([1]; EDL (14) from EAMG rats)?
Answer: 235.1 ± 25.0

Question: What about the “Force generation in isolated soleus, EDL and diaphragm muscles compared with muscles from healthy animals” value ([1]; NMD670 20 μM or between 20 and 40 μM, EAMG animals) of the same molecule?
Answer: restored force generation

Question: What about the “Relative force area after addition” value ([1]; Soleus (14) from EAMG rats) of the same molecule?
Answer: 199 ± 17.1

Question: And the “NMD670 released from the tablets” value [2]?
Answer: Not less than 80%

Question: What about the “Loss of body weight versus vehicle” value ([3]; 14-day chronic dosing, EAMG animals, 20 mg/kg twice daily (b36 prints 40 mg/kg BID)) of the same molecule?
Answer: attenuation in loss of body weight

Question: What about the “Treated rats that completed the study” value ([3]; 14-day study, early termination when body weight below 80% of maximum, vehicle 3 out of 8) of the same molecule?
Answer: 6 of the 8

Question: And the “Healthy subjects with myotonic symptoms” value ([4]; 1200 mg QD, mild in intensity, resolved spontaneously within a few hours)?
Answer: 2 healthy subjects

Question: And the “AE with dose relationship, reported at the highest dose levels tested” value ([4]; 1200 mg and 1600 mg single dose, healthy subjects)?
Answer: transient myotonia

Question: What about the Subject discontinuations ([4]; Part A healthy subjects) of the same molecule?
Answer: no subject discontinuations

Question: What about the “Total number of AEs reported” value ([4]; Part A, 35 healthy subjects, single-ascending dose study) of the same molecule?
Answer: 70 AEs

Question: And the Serum uric acid ([4]; Phase 1 clinical study, considered non-clinically significant)?
Answer: dose-dependent decrease in serum uric acid

Question: What about the “Intensity of most AEs” value ([4]; Phase 1 healthy subjects) of the same molecule?
Answer: mild and mild in intensity

Question: And the Maximum tolerated dose ([4]; healthy subjects, based on myotonia)?
Answer: 1200 mg QD

Question: What about the “AEs at least possibly drug-related (number)” value [4, 5] of the same molecule?
Answer: 47 AEs

Question: And the “AEs at least possibly drug-related (proportion)” value [4, 5]?
Answer: 67%

Question: What about the “Myotonia at 1600 mg (intensity)” value ([4]; one healthy subject, single dose 1600 mg, spontaneously and fully resolved within hours, dose escalation stopped) of the same molecule?
Answer: myotonia of moderate intensity; also recorded: moderate in intensity; also recorded: Myotonia of moderate severity

Question: And the “Serious or severe adverse effects” value ([4]; single doses 50-1600 mg, healthy subjects)?
Answer: No serious or severe adverse effects; also recorded: No serious adverse reactions were reported

Question: And the “Relationship between increases in NMD670 dose and incidence of participants with AEs” value ([4]; single doses, healthy subjects)?
Answer: no meaningful relationships

From US20260102377A1, “COMPOSITIONS AND METHODS FOR TREATING MYASTHENIA GRAVIS” (priority 2022, published 2026)
